Consider six molecules from patent publication US20170015666A1, “ENHANCER OF ZESTE HOMOLOG 2 INHIBITORS” (GLAXOSMITHKLINE INTELLECTUAL PROPERTY (NO.2) LIMITED, priority 2014, published 2017).

The target of the assay is T1, EZH2 within the PRC2 complex (Homo sapiens, UniProt Q15910).
T1 construct: FLAG; made in house; host or cells: Sf9 cells
Description: EZH2 methyltransferase scintillation proximity assay (SPA) with PRC2 complex. The assay is classed as biochemical. The settings on record: 3H-SAM, HeLa mononucleosome substrate, 30 min preincubation, 1 hour reaction.

T1 sequence (Q15910 whole entry): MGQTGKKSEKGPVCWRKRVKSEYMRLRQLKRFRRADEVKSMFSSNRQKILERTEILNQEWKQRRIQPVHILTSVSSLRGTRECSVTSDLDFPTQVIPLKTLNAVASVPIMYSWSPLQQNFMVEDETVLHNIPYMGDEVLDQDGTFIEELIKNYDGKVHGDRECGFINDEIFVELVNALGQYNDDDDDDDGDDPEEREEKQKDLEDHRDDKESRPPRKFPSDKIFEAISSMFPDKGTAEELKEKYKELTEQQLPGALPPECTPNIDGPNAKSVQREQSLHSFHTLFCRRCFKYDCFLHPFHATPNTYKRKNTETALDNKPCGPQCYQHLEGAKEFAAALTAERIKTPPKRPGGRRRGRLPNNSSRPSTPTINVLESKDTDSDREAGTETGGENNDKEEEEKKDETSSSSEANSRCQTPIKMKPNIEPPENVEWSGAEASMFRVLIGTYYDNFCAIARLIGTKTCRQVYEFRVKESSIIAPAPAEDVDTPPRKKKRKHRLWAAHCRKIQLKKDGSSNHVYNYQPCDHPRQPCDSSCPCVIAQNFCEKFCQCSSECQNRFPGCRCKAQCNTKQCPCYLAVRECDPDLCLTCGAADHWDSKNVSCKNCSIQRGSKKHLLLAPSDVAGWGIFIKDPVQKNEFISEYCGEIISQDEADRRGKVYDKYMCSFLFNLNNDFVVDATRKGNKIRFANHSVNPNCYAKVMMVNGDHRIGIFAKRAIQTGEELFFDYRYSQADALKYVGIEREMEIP
T1 sequence (O75530 whole entry partner): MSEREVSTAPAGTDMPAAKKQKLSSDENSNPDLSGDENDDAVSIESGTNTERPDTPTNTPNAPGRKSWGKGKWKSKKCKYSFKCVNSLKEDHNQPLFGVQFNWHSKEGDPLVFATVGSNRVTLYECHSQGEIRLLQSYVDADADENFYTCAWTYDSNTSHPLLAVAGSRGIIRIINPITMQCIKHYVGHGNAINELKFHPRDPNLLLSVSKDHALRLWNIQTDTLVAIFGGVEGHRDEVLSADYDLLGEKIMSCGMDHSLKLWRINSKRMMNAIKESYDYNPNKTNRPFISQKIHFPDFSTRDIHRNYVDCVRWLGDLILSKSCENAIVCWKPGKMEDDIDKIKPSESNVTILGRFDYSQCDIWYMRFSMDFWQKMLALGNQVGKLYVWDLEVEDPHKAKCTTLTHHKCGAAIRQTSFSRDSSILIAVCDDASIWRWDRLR
T1 sequence (Q15022 whole entry partner): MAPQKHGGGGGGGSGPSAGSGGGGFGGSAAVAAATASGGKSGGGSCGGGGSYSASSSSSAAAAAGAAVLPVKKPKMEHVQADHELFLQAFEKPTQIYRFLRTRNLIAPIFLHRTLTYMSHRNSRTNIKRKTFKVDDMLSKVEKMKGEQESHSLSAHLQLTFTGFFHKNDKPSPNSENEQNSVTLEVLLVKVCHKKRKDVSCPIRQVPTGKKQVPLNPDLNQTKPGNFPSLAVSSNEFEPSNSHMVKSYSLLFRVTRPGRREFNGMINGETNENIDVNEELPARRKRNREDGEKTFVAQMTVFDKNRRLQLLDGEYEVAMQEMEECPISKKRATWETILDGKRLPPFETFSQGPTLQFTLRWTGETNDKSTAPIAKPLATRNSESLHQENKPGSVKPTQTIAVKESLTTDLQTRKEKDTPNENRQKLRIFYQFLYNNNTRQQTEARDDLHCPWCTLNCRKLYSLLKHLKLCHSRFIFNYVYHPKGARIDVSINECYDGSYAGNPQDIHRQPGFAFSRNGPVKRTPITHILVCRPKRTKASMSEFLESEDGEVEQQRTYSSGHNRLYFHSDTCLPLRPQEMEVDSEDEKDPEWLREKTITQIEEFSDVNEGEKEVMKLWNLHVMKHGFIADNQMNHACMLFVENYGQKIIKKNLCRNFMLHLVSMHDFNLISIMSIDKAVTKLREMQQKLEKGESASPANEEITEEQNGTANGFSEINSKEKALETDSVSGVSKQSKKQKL
T1 sequence (Q09028 whole entry partner): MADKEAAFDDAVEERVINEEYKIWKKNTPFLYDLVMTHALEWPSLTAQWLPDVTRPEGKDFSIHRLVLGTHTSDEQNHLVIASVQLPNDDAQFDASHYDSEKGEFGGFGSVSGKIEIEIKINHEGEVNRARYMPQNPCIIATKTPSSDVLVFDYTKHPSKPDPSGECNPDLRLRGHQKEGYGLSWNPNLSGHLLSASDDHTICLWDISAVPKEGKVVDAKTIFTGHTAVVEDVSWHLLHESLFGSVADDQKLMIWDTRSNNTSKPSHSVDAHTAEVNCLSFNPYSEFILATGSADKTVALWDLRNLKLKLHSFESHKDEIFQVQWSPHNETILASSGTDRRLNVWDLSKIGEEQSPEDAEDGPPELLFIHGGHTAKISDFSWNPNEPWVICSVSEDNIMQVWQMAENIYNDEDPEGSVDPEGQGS
T1 sequence (Q6ZN18 whole entry partner): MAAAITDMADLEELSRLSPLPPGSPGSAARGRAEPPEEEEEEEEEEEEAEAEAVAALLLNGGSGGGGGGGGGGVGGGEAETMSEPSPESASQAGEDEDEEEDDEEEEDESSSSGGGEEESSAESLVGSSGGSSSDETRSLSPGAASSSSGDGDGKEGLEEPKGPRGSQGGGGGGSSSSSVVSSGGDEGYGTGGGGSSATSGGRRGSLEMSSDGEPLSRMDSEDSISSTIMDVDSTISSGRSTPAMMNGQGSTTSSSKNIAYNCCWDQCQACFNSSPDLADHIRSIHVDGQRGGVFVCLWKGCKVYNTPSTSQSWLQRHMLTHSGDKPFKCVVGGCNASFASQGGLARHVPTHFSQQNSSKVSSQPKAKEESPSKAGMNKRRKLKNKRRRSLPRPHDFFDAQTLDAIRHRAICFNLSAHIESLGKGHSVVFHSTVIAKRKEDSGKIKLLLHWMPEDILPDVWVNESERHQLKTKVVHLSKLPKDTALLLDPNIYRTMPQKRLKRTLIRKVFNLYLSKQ

The IC50 is the point on the concentration scale where inhibition reaches its midpoint. Higher therefore signals weaker potency. As to `Cc1cc2c(c(=O)[nH]1)CNC(=O)c1cc(C#N)cc3c1c(cn3C(C)C)C/C=C/CC2` [Example 5, (E)-4-isopropyl-12-methyl-14,17-dioxo-6,9,10,13,14,15,16,17-octahydro-4H-pyrido[4′,3′:11,12][1]azacyclotridecino[5,4,3-cd]indole-2-carbonitrile], the IC50 was found to be 158 nM.
Take `Cc1cc2c(c(=O)[nH]1)CNC(=O)c1cc(Cl)cc3c1c(cn3C(C)C)C/C=C/CC2` [Example 1, (E)-2-chloro-4-isopropyl-12-methyl-9,10,15,16-tetrahydro-4H-pyrido[4′,3′:11,12][1]azacyclotridecino[5,4,3-cd]indole-14,17(6H,13H)-dione]: the IC50 turned out to be 40 nM.
`Cc1cc2c(c(=O)[nH]1)CNC(=O)c1cc(Cl)cc3c1c(cn3C(C)C)C/C=C\CC2` [Example 2, (Z)-2-chloro-4-isopropyl-12-methyl-9,10,15,16-tetrahydro-4H-pyrido[4′,3′:11,12][1]azacyclotridecino[5,4,3-cd]indole-14,17(6H,13H)-dione] had an IC50 of 316 nM.
The same measure for `Cc1cc2c(c(=O)[nH]1)CNC(=O)c1cc(Cl)cc3c1c(cn3C(C)C)CCCCC2` [Example 3, 2-chloro-4-isopropyl-12-methyl-7,8,9,10,15,16-hexahydro-4H-pyrido[4′,3′:11,12][1]azacyclotridecino[5,4,3-cd]indole-14,17(6H,13H)-dione]: 500 nM; for `Cc1cc2c(c(=O)[nH]1)CNC(=O)c1cc(-c3ccc(N4CCNCC4)nc3)cc3c1c(cn3C(C)C)C/C=C/CC2` [Example 4, (E)-4-isopropyl-12-methyl-2-(6-(piperazin-1-yl)pyridin-3-yl)-9,10,15,16-tetrahydro-4H-pyrido[4′,3′:11,12][1]azacyclotridecino[5,4,3-cd]indole-14,17(6H,13H)-dione]: 32 nM.
In turn, `Cc1cc2c(c(=O)[nH]1)CNC(=O)c1cc(C#CC(C)(C)O)cc3c1c(cn3C(C)C)C/C=C/CC2` [Example 6, (E)-2-(3-hydroxy-3-methylbut-1-yn-1-yl)-4-isopropyl-12-methyl-9,10,15,16-tetrahydro-4H-pyrido[4′,3′:11,12][1]azacyclotridecino[5,4,3-cd]indole-14,17(6H,13H)-dione] showed an IC50 of 200 nM.
